Test results taken from patent EP4818168A1, “FUSED RING COMPOUND, PHARMACEUTICAL COMPOSITION THEREOF AND USE THEREOF” (priority 2023, dated 2025).
Read-outs that look alike come from different tables or passages of the source.

What was measured:
AURKA = target: T1, AURKA (Homo sapiens, UniProt O14965); format: cell-based
T1 construct: endogenous in cells; host or cells: Jurkat cells
T1 sequence (O14965 1-403): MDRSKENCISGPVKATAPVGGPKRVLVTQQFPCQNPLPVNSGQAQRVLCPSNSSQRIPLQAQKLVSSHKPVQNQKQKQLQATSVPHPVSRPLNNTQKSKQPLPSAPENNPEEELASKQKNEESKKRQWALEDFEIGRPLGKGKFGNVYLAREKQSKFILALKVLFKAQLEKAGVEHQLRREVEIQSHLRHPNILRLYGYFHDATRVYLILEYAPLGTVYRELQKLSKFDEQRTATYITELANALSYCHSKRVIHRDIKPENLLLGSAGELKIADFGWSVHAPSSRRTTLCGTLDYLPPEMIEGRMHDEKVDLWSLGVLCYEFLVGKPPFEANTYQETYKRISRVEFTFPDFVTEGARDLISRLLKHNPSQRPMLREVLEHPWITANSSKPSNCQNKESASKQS
Summary of the method: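 AURKA degradation read by western blot: band signal, fluorescent or chemiluminescent, curve-fitted to derive DC50. Cells were Jurkat, plated at 1×10^6 cells/500 µL with compound, then lysed and blotted onto nitrocellulose, primary antibody overnight at 4°C.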

H82 cells = assay: cells; format: cell-based; conditions: Homo sapiens
Procedure: CellTiter-Glo (CTG) is a rapid cell viability test method based on ATP detection. […] Adenosine triphosphate (ATP) participates in various enzymatic reactions in organisms and is an indicator of living cell metabolism. Its content directly reflects the number of living cells and cell status. During the experiment, equal volume of CTG reagent is added to the cultured cells to measure the luminescence value. The chemiluminescent signal value is proportional to the amount of ATP, thus reflecting the number of viable cells. Therefore, cell viability can be obtained by detecting the ATP content. Compounds that affect cell viability will inhibit cell viability in a concentration-dependent manner, allowing a curve to be fitted to obtain the IC50 value.
The experimental procedure is as follows: • 11. Place the cell suspension in a 15 mL centrifuge tube, centrifuge at 1000 rpm for 5 min at room temperature, discard the supernatant, and collect the cell pellet. • 12. Resuspend the cell pellet with preheated complete cell culture medium (RPMI1640+10%FBS+1%PS), and use a Countess® automated cell counter to detect cell viability and density. […] Transfer the compound solution to a 96-well plate seeded with cells (final concentration of DMSO 0.1%), and place in a cell incubator at 37°C, 5% CO2 for 6 days. • 15. […] Protect from light during the whole process. Perform optical signal readings using a SpectraMax i3x reader. • 16. Data analysis: Remaining activity (%) = 100% * (1 - ((LumDMSO - Lummedium) - Lumsample) / (LumDMSO - LumPBS/medium)). Use GraphPad Prism 9.0 software to draw an S-shaped dose-survival rate curve and calculate the IC50 value using a nonlinear regression model.

[1] = 100 nM compound, Jurkat cells, 24 h, Table 2
[2] = 1 µM compound, Jurkat cells, 24 h, Table 2
[3] = NCI-H82, H82 cells, 4000 cells/well, CellTiter-Glo, read-out: IC50 in H82 Cells
[4] = NCI-H82, read-out: IC50 in H82 Cells

SMILES	Percentage of AURKA Degradation Induced by 100 nM Compound in Jurkat Cells (AURKA; [1])	Percentage of AURKA Degradation Induced by 1 µM Compound in Jurkat Cells (AURKA; [2])	IC50 (H82 cells; [3]) [µM]	Percentage of AURKA Degradation Induced by 100 nM Compound in Jurkat Cells (AURKA)	Percentage of AURKA Degradation Induced by 1 µM Compound in Jurkat Cells (AURKA)	IC50 (H82 cells; [4]) [µM]
O=C1CCN(c2ccnc(N3CCN(CC#Cc4cccc(Nc5ncc6c(n5)-c5ccc(Cl)cc5C(c5c(F)cccc5F)=NC6)c4)CC3)c2)C(=O)N1 [Compound A130]	++ (30% < Degradation ≤ 70%)	++ (30% < Degradation ≤ 70%)	< 1	–	–	–
O=C1CCN(c2cncc(N3CCN(CC#Cc4cccc(Nc5ncc6c(n5)-c5ccc(Cl)cc5C(c5c(F)cccc5F)=NC6)c4)CC3)c2)C(=O)N1 [Compound A131]	+++ (Degradation > 70%)	+++ (Degradation > 70%)	< 1	–	–	–
O=C1CCN(c2ccc(N3CCC(N4CCN(c5ccc(Nc6ncc7c(n6)-c6ccc(Cl)cc6C(c6c(F)cccc6F)=NC7)cc5)C(=O)C4)CC3)nc2)C(=O)N1 [Compound A132]	–	–	–	+++ (key: +: Degradation ≤ 30%; ++: 30% < Degradation ≤ 70%; +++: Degradation > 70%)	+++ (key: +: Degradation ≤ 30%; ++: 30% < Degradation ≤ 70%; +++: Degradation > 70%)	< 1
O=C1CCN(c2cccc(N3CC(CC#Cc4cccc(Nc5ncc6c(n5)-c5ccc(Cl)cc5C(c5c(F)cccc5F)=NC6)c4)C3)c2)C(=O)N1 [Compound A133]	++ (30% < Degradation ≤ 70%)	+++ (Degradation > 70%)	< 1	–	–	–
O=C1CCN(c2cnc(N3CCN(CCNC(=O)c4ccc(Nc5ncc6c(n5)-c5ccc(C7CC7)cc5C(c5c(F)cccc5F)=NC6)cc4)CC3)s2)C(=O)N1 [Compound A134]	+++ (Degradation > 70%)	++ (30% < Degradation ≤ 70%)	< 1	–	–	–
CN(CCN1CCN(c2ncc(N3CCC(=O)NC3=O)s2)CC1)C(=O)c1ccc(Nc2ncc3c(n2)-c2ccc(C4CC4)cc2C(c2c(F)cccc2F)=NC3)cc1 [Compound A135]	+++ (Degradation > 70%)	++ (30% < Degradation ≤ 70%)	< 1	–	–	–
CN(CCN1CCN(c2ccc(N3CCC(=O)NC3=O)cc2)CC1)C(=O)c1ccc(Nc2ncc3c(n2)-c2ccc(C4CC4)cc2C(c2c(F)cccc2F)=NC3)cc1 [Compound A136]	+++ (Degradation > 70%)	+++ (Degradation > 70%)	< 1	–	–	–
COc1ccccc1C1=NCc2cnc(Nc3ccc(C(=O)NC4CC5(CCN(c6ccc(N7CCC(=O)NC7=O)cn6)CC5)C4)cc3)nc2-c2ccncc21 [Compound A137]	+++ (Degradation > 70%)	+++ (Degradation > 70%)	< 1	–	–	–
O=C1CCN(c2ccc(N3CCC4(CC3)CC(NC(=O)c3ccc(Nc5ncc6c(n5)-c5ccncc5C(c5ccccc5F)=NC6)cc3)C4)nc2)C(=O)N1 [Compound A138]	+++ (Degradation > 70%)	+++ (Degradation > 70%)	1 to 10	–	–	–
O=C1CCN(c2cccc(N3CC(CN4CCN(c5cccc(Nc6ncc7c(n6)-c6ccc(Cl)cc6C(c6c(F)cccc6F)=NC7)c5)CC4)C3)c2)C(=O)N1 [Compound A140]	+++ (Degradation > 70%)	+++ (Degradation > 70%)	< 1	–	–	–
O=C1CCN(c2cccc(N3CCN(CC4CN(c5cccc(Nc6ncc7c(n6)-c6ccc(Cl)cc6C(c6c(F)cccc6F)=NC7)c5)C4)CC3)c2)C(=O)N1 [Compound A141]	+++ (Degradation > 70%)	+++ (Degradation > 70%)	< 1	–	–	–
O=C1CCN(c2ccc(N3CCC4(CC3)CC(NC(=O)c3ccc(Nc5ncc6c(n5)-c5ccc(C7CC7)cc5C(c5ccccc5Cl)=NC6)cc3)C4)nc2)C(=O)N1 [Compound A142]	+++ (Degradation > 70%)	+++ (Degradation > 70%)	< 1	–	–	–
O=C1CCN(c2cccc(N3CCC(CN4CC(c5cccc(Nc6ncc7c(n6)-c6ccc(Cl)cc6C(c6c(F)cccc6F)=NC7)c5)C4)CC3)c2)C(=O)N1 [Compound A143]	+++ (Degradation > 70%)	+++ (Degradation > 70%)	< 1	–	–	–
O=C1CCN(c2cccc(C3CCN(CCOc4cccc(Nc5ncc6c(n5)-c5ccc(Cl)cc5C(c5c(F)cccc5F)=NC6)c4)C3)c2)C(=O)N1 (stereo not drawn) [Compound A144]	+ (Degradation ≤ 30%)	+ (Degradation ≤ 30%)	< 1	–	–	–
O=C1CCN(c2cccc(N3CCN(Cc4cccc(Nc5ncc6c(n5)-c5ccc(Cl)cc5C(c5c(F)cccc5F)=NC6)c4)CC3)c2)C(=O)N1 [Compound A146]	++ (30% < Degradation ≤ 70%)	+ (Degradation ≤ 30%)	< 1	–	–	–
O=C1CCN(c2cccc(N3CCN(CCc4cccc(Nc5ncc6c(n5)-c5ccc(Cl)cc5C(c5c(F)cccc5F)=NC6)c4)CC3)c2)C(=O)N1 [Compound A147]	+++ (Degradation > 70%)	+++ (Degradation > 70%)	< 1	–	–	–
O=C1CCN(c2cccc(N3CCN(CCOc4cccc(Nc5ncc6c(n5)-c5ccc(C7CC7)cc5C(c5c(F)cccc5F)=NC6)c4)CC3)c2)C(=O)N1 [Compound A148]	+++ (Degradation > 70%)	+++ (Degradation > 70%)	< 1	–	–	–
Cn1c(CN2CCN(c3ncc(N4CCC(=O)NC4=O)s3)CC2)cnc1-c1ccc(Nc2ncc3c(n2)-c2ccc(Cl)cc2C(c2c(F)cccc2F)=NC3)cc1 [Compound A149]	+++ (Degradation > 70%)	+++ (Degradation > 70%)	< 1	–	–	–
O=C1CCN(c2cccc(N3CCC(N4CC(c5cccc(Nc6ncc7c(n6)-c6ccc(Cl)cc6C(c6c(F)cccc6F)=NC7)c5)C4)CC3)c2)C(=O)N1 [Compound A151]	++ (30% < Degradation ≤ 70%)	+ (Degradation ≤ 30%)	< 1	–	–	–
Cc1c(N2CCN(CCc3cccc(Nc4ncc5c(n4)-c4ccc(Cl)cc4C(c4c(F)cccc4F)=NC5)c3)CC2)cccc1N1CCC(=O)NC1=O [Compound A155]	++ (30% < Degradation ≤ 70%)	++ (30% < Degradation ≤ 70%)	< 1	–	–	–
Cc1c(N2CC(C#Cc3cccc(Nc4ncc5c(n4)-c4ccc(Cl)cc4C(c4c(F)cccc4F)=NC5)c3)C2)cccc1N1CCC(=O)NC1=O [Compound A156]	–	–	–	+ (key: +: Degradation ≤ 30%; ++: 30% < Degradation ≤ 70%; +++: Degradation > 70%)	+ (key: +: Degradation ≤ 30%; ++: 30% < Degradation ≤ 70%; +++: Degradation > 70%)	1 to 10
O=C1CCN(c2cnc(N3CCN(CCN4Cc5cc(Nc6ncc7c(n6)-c6ccc(Cl)cc6C(c6c(F)cccc6F)=NC7)ccc5C4=O)CC3)s2)C(=O)N1 [Compound A157]	++ (30% < Degradation ≤ 70%)	+ (Degradation ≤ 30%)	< 1	–	–	–
O=C1CCN(c2ccc(N3CCN(CCN4Cc5cc(Nc6ncc7c(n6)-c6ccc(Cl)cc6C(c6c(F)cccc6F)=NC7)ccc5C4=O)CC3)cc2)C(=O)N1 [Compound A158]	++ (30% < Degradation ≤ 70%)	+ (Degradation ≤ 30%)	< 1	–	–	–
